Experimental findings from article PMC4015961, “New colorimetric screening assays for the directed evolution of fungal laccases to improve the conversion of plant biomass” (BMC Biotechnology, 2013) are described below.

Assay [1] relates to T1, Trametes villosa laccase (TvL).
T1 construct: gene LCC1
Conditions: sodium tartrate pH 4.0; crude commercial enzyme.

Assay [2] deals with T2, R2 LRPL (Thermothelomyces thermophilus, UniProt G2QG31).
T2 construct: gene lcc1; secreted by S. cerevisiae, crude supernatant
T2 sequence (G2QG31 entry or part of it): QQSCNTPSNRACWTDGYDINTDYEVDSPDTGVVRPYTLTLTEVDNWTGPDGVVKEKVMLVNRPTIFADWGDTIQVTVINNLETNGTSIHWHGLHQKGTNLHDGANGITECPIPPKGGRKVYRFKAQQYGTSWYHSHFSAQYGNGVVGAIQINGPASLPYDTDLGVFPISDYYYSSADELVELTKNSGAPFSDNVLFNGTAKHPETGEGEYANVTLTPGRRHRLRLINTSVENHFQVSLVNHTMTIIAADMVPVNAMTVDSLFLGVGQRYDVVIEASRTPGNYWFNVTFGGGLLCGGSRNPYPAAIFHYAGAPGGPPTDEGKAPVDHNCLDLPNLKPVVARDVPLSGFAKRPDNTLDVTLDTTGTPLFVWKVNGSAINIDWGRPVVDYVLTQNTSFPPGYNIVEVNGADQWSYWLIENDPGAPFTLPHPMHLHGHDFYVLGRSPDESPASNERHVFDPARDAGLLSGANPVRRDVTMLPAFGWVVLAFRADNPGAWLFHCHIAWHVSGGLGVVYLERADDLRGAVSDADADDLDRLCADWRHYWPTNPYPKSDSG
Briefly: endpoint absorbance increase at […] nm. Conditions: 2 mM acetosyringone; tartrate pH 4.0; yeast supernatant. In kind it is biochemical.

Assay [3] concerns T3, Trametes villosa laccase (TvL).
T3 construct: gene LCC1; crude commercial laccase preparation, Novozymes
Briefly: absorbance increase at […] nm. In kind it is biochemical. Conditions: sodium tartrate pH 4.0; crude commercial enzyme; assigned by order of preceding sentence and Figure 2A-C.

Assay [4] has the same test system. Briefly: absorbance increase at […] nm. In kind it is biochemical. Conditions: sodium tartrate pH 4.0; crude commercial enzyme.
Assay [5] concerns the target T2, R2 LRPL. The assay can be described thus: endpoint absorbance increase at […] nm. In kind it is biochemical. Conditions: 250 μM sinapic acid; tartrate pH 4.0; yeast supernatant.

Read-outs that look alike come from different tables or passages of the source.

With `COc1cc(C(C)=O)cc(OC)c1O` [acetosyringone, 3′,5′-dimethoxy-4′-hydroxyacetophenone], the Km (as a rule, the concentration of substrate that gives half-maximal velocity) in assay [1] came to 93 µM. Besides, the “endpoint absorbance increase at 520 nm” value on R2 LRPL [2] is “colored responses were linear (absorbance increased with increasing volumes of supernatant) with both laccases”.

For `COc1cc(C=O)cc(OC)c1O` [syringaldehyde, 3,5-dimethoxy-4-hydroxybenzaldehyde], the Km in assay [3] was 120 µM.

On to `COc1cc(/C=C/C(=O)O)cc(OC)c1O` [sinapic acid], for which, in assay [4], the Michaelis constant (Km) stood at 85 µM. Besides, on R2 LRPL [5], the “endpoint absorbance increase at 512 nm” value is “colored responses were linear (absorbance increased with increasing volumes of supernatant) with both laccases”.
